{"source": "patent US8685439B2", "about": "“Method for the treatment and prevention of eyelid swelling” (Aciex Therapeutics, Inc., priority 2006, dated 2014)", "key": {"[1]": {"test_system": "morning eyelid swelling", "assay": "Treatment of morning eyelid swelling (eyelid edema), eyelid volume by 3D scanner, treated eye vs untreated eye", "assay_type": "in vivo, human", "settings": "topical to one eye, other eye untreated"}, "[2]": {"test_system": "morning eyelid swelling", "assay": "Treatment of morning eyelid swelling (eyelid edema), eyelid volume by 3D scanner, treated eye vs untreated eye", "assay_type": "in vivo, human", "settings": "for reduction of morning eyelid swelling (result in words): topical to one eye, other eye untreated, 3D scanner", "protocol": "In this study, the efficacy of naphazoline 0.1% ophthalmic solution was evaluated for treatment for eyelid edema. The eyelid volume for 11 subjects participating in the study was recorded in the afternoon of Day 1 and again upon arrival to the clinic the following morning (Day 2). […] The natural progression of morning eyelid swelling, as measured using 3D scanning technology is depicted in FIG. 10. The increase ranged from 14 mm^3 to 659 mm^3. Subjects were then dosed with naphazoline 0.1% (vasoconstrictor) in the right eye and eyelid volume was assessed at 5, 10, 15, 30, and 120 minutes following treatment using a 3-D scanner. […] A summary of all the patient data is depicted if FIG. 3L.\nIn a preliminary study with a similar design to that described above, NaCl 5% ophthalmic solution was evaluated as a potential treatment for eyelid edema. […] Eyelid swelling was assessed using a 3-D scanner at 5, 10, 15, 20, 30, and 120 minutes post-treatment. […] In one subject, this reduction was pronounced and was present through the 120 minute assessment time point. In the remaining three patients, treatment was not effective.\nA total of 6 subjects (male, between the ages of 25 and 29) were evaluated. At the start of the study, five (5) baseline scans were performed per subject and eye using a 3D scanner. The next day, subjects were asked to five (5) scans of each eye, identical to Visit 1, were then taken.\nSubjects received the 2 drops (40 μl each) of the combination treatment, with one minute apart each drop in one eye and no treatment in the other eye. Five (5) scans of each eye were taken, identical to Visit 1, 20 minutes after second drop instillation. Subjects were asked to grade their eyelid swelling post treatment. Digital photos were also taken at baseline and at 20 minutes post treatment."}}, "data": [{"smiles": "[Cl-].[Na+]", "note": "[NaCl 5% ophthalmic solution, sodium chloride]", "values": [{"measurement": "reduction of morning eyelid swelling (result in words)", "setting": "[1]", "result": "some efficacy"}, {"measurement": "patients in whom treatment was not effective", "setting": "[2]; 6 subjects", "result": "three"}, {"measurement": "mean change from baseline versus negative controls", "setting": "[2]; FIG. 4G", "result": "numerically superior to negative controls, though the differences were not statistically significant"}, {"measurement": "subjects with pronounced reduction in eyelid swelling", "setting": "[2]; present through the 120 minute assessment time point, 6 subjects", "result": "one"}, {"measurement": "patients with a reduction in eyelid swelling", "setting": "[2]; through 15 minutes post-instillation, 6 subjects", "result": "Three"}, {"measurement": "reduction of morning eyelid swelling (result in words)", "setting": "[2]", "result": "caused a reduction of eyelid swelling in several patients"}]}, {"smiles": "CNC[C@H](O)c1cccc(O)c1", "note": "[0.25% phenylephrine formulation, phenylephrine, reference compound]", "values": [{"measurement": "reduction of morning eyelid swelling (result in words)", "setting": "[2]", "result": "did reduce morning eyelid swelling"}]}, {"smiles": "c1ccc2c(CC3=NCCN3)cccc2c1", "note": "[naphazoline 0.1%, naphazoline, reference compound]", "values": [{"measurement": "reduction of morning eyelid swelling (result in words)", "setting": "[1]; listed as naphazoline 0.5% solution", "result": "caused a reduction of eyelid swelling in most subjects"}, {"measurement": "reduction of morning eyelid swelling (result in words)", "setting": "[2]", "result": "demonstrated efficacy"}, {"measurement": "subjects with greater decrease in eyelid volume in treatment eye than non-treatment eye", "setting": "[2]; up to the 30 minute timepoint", "result": "9 out of 11"}, {"measurement": "subjects with greater decrease in eyelid volume in treatment eye than non-treatment eye", "setting": "[2]; up to the 120 minute timepoint", "result": "7 out of 11"}]}, {"smiles": "OC[C@@H](O)[C@@H](O)[C@H](O)[C@H](O)CO", "note": "[mannitol 12.5% solution, mannitol]", "values": [{"measurement": "reduction of morning eyelid swelling (result in words)", "setting": "[2]", "result": "did reduce morning eyelid swelling"}]}]}
